Our source for the EC50 values is patent US9765091B2, “Tetrahydropyrazolo [3,4-b] azepine derivatives and their use as allosteric modulators of metabotropic glutamate receptors” (Addex Pharma S.A., priority 2010, dated 2017).

The assay deals with T1, human mGluR4 (Homo sapiens, UniProt Q14833).
T1 construct: expressed in transfected cells
The experiment in a line: Fluorescent cell based Ca2+ mobilization assay (FLIPR) on HEK-293 cells expressing human mGluR4. The conditions noted are these: positive allosteric modulation, HEK-293 cells expressing hmGluR4, stimulated by EC25 glutamate; mean of at least three independent experiments in duplicate; read-out: Ca^2+ Flux* (mean EC50). An excerpt: mGluR4 Assay on HEK-Expressing Human mGluR4
The compounds of the present invention are positive allosteric modulators of mGluR4 receptor. Their activity was examined on recombinant human mGluR4a receptors by detecting changes in intracellular Ca^2+ concentration, using the fluorescent Ca^2+-sensitive dye Fluo4-(AM) and a Fluorometric Imaging Plate Reader (FLIPR, Molecular Devices, Sunnyvale, Calif.).
The cDNA encoding the human metabotropic glutamate receptor (hmGluR4), (accession number NM_000841.1, NCBI Nucleotide database browser), was subcloned into an expression vector containing also the hygromycin resistance gene. In parallel, the cDNA encoding a G protein allowing redirection of the activation signal to intracellular calcium flux was subcloned into a different expression vector containing also the puromycin resistance gene. Transfection of both these vectors into HEK293 cells with PolyFect reagent (Qiagen) according to supplier's protocol, and hygromycin and puromycin treatment allowed selection of antibiotic resistant cells which had integrated stably one or more copies of the plasmids. Positive cellular clones expressing hmGluR4 were identified in a functional assay measuring changes in calcium fluxes in response to glutamate or selective known mGluR4 orthosteric agonists and antagonists. HEK-293 cells expressing hmGluR4 were maintained in media containing DMEM, dialyzed Fetal Calf Serum (10%), Glutamax™ (2 mM), Penicillin (100 units/mL), Streptomycin (100 μg/mL), Geneticin (100 μg/mL) and Hygromycin-B (40 μg/mL) and puromycin (1 μg/mL) at 37° C./5% CO2.
Human mGluR4 HEK-293 cells were plated out 24 hours prior to FLIPR^384 assay in black-walled, clear-bottomed, poly-L-ornithine-coated 384-well plates at a density of 25,000 cells/well in a glutamine/glutamate free DMEM medium containing foetal bovine serum (10%), penicillin (100 units/mL) and streptomycin (100 μg/mL) at 37° C./5% CO2.
On the day of the assay, the medium was aspirated and the cells were loaded with a 3 μM solution of Fluo4-AM (LuBioScience, Lucerne, Switzerland) in 0.03% pluronic acid. After 1 hour at 37° C./5% CO2, the non incorporated dye was removed by washing cell plate with the assay buffer and the cells were left in the dark at room temperature for […] before testing. All assays were performed in a pH 7.4 buffered-solution containing 20 mM HEPES, 143 mM NaCl, 6 mM KCl, 1 mM MgSO4, 1 mM CaCl2, 0.125 mM sulfapyrazone and 0.1% glucose.
After 10 s of basal fluorescence recording, various concentrations of the compounds of the invention were added to the cells. Changes in fluorescence levels were first monitored for 180 s in order to detect any agonist activity of the compounds. Then the cells were stimulated by an EC25 glutamate concentration for an additional 110 s in order to measure enhancing activities of the compounds of the invention. EC25 glutamate concentration is the concentration giving 25% of the maximal glutamate response.
The concentration-response curves of representative compounds of the present invention were generated using the Prism GraphPad software (Graph Pad Inc, San Diego, USA). The curves were fitted to a four-parameter logistic equation: (Y=Bottom+(Top−Bottom)/(1+10^((Log EC50−X)*Hill Slope) allowing the determination of EC50 values.
The Table 4 below represents the mean EC50 obtained from at least three independent experiments of selected molecules performed in duplicate.
A general note: A change in cytosolic calcium serves as a functional read-out for many receptors and channels.

The structures appear in SMILES notation.

T1 sequence (Q14833 33-912): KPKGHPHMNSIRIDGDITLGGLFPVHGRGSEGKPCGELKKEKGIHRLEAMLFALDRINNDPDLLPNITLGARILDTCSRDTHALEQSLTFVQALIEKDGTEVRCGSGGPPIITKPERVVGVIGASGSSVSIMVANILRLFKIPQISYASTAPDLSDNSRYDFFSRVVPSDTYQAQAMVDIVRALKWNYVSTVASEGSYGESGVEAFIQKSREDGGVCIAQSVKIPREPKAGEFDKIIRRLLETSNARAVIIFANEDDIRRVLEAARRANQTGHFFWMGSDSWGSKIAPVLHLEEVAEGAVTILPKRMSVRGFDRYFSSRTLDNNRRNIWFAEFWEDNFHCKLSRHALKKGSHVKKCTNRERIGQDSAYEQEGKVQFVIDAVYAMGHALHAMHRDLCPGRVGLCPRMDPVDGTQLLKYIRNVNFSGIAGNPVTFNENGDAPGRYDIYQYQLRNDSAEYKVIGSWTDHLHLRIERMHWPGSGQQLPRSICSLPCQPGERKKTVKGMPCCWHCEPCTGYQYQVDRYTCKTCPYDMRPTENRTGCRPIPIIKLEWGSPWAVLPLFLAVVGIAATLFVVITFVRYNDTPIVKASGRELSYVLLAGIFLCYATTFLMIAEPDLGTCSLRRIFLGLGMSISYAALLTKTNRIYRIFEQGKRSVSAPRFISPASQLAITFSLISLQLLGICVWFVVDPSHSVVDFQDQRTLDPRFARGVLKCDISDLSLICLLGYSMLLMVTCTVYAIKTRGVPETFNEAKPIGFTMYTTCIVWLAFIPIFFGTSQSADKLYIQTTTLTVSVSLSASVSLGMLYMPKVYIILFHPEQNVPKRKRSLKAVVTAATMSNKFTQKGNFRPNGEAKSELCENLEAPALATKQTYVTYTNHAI

As a reminder, the EC50 is the concentration giving half of the maximal effect. With `Fc1cnc(Nc2nc3c(s2)CCN(CC2CCCCC2)c2n[nH]cc2-3)nc1` [Compound 1-38, 6-(Cyclohexylmethyl)-N-(5-fluoropyrimidin-2-yl)-4,5,6,8-tetrahydropyrazolo[3,4-b]thiazolo[4,5-d]azepin-2-amine], the 50% effective concentration (EC50) was below 100 nM.

On to `Fc1cnc(Nc2nc3c(s2)CCN(Cc2ccc(Cl)cn2)c2n[nH]cc2-3)nc1` [Compound 1-41, 6-((5-Chloropyridin-2-yl)methyl)-N-(5-fluoropyrimidin-2-yl)-4,5,6,8-tetrahydropyrazolo[3,4-b]thiazolo[4,5-d]azepin-2-amine], for which the EC50 was below 100 nM.

For the compound `CC(C)c1cc(CN2CCc3nc(Nc4ncc(F)cn4)sc3-c3c[nH]nc32)no1` [Compound 1-42], the EC50 is below 100 nM.

Regarding `CC(C)OCCN1CCc2sc(Nc3ncc(F)cn3)nc2-c2c[nH]nc21` [Compound 1-43, N-(5-Fluoropyrimidin-2-yl)-6-(2-isopropoxyethyl)-4,5,6,8-tetrahydropyrazolo[3,4-b]thiazolo[4,5-d]azepin-2-amine], the EC50 was below 100 nM.

`Fc1cnc(Nc2nc3c(s2)CCN(CC2CCC2)c2n[nH]cc2-3)nc1` [Compound 1-44, 6-(Cyclobutylmethyl)-N-(5-fluoropyrimidin-2-yl)-4,5,6,8-tetrahydropyrazolo[3,4-b]thiazolo[4,5-d]azepin-2-amine]: the EC50 was below 100 nM.

On to `Fc1cnc(Nc2nc3c(s2)CCN(Cc2ccccc2)c2[nH]ncc2-3)nc1` [Compound 1-45, 6-Benzyl-N-(5-fluoropyrimidin-2-yl)-4,5,6,7-tetrahydropyrazolo[3,4-b]thiazolo[4,5-d]azepin-2-amine], for which the EC50 is below 100 nM.

Regarding `Cc1cc(CN2CCc3sc(Nc4nccc(C)n4)nc3-c3c[nH]nc32)on1` [Compound 1-46, 6-((3-Methylisoxazol-5-yl)methyl)-N-(4-methylpyrimidin-2-yl)-4,5,6,8-tetrahydropyrazolo[3,4-b]thiazolo[4,5-d]azepin-2-amine], the EC50 is below 100 nM.

For the compound `Fc1cnc(Nc2nc3c(s2)CCN(CC2CCCO2)c2[nH]ncc2-3)nc1` (stereo not drawn) [Compound 1-48, N-(5-Fluoropyrimidin-2-yl)-6-((tetrahydrofuran-2-yl)methyl)-4,5,6,7-tetrahydropyrazolo[3,4-b]thiazolo[4,5-d]azepin-2-amine], the EC50 was below 100 nM.

Regarding `Fc1cnc(Nc2nc3c(s2)CCN(Cc2ncccn2)c2[nH]ncc2-3)nc1` [Compound 1-49, N-(5-Fluoropyrimidin-2-yl)-6-(pyrimidin-2-ylmethyl)-4,5,6,7-tetrahydropyrazolo[3,4-b]thiazolo[4,5-d]azepin-2-amine], the EC50 is below 100 nM.

`COCCN1CCc2sc(Nc3ncc(O)cn3)nc2-c2cn[nH]c21` [Compound 1-50, 2-(6-(2-Methoxyethyl)-4,5,6,7-tetrahydropyrazolo[3,4-b]thiazolo[4,5-d]azepin-2-ylamino)pyrimidin-5-ol]: the EC50 was below 100 nM.

Take `Fc1cnc(Nc2nc3c(s2)CCN(C[C@H]2CCCO2)c2[nH]ncc2-3)nc1` [Compound 1-51]: the EC50 is below 100 nM.

Turning to `Cn1ncc(CN2CCc3sc(Nc4ncc(F)cn4)nc3-c3cn[nH]c32)n1` [Compound 1-52, N-(5-Fluoropyrimidin-2-yl)-6-((2-methyl-2H-1,2,3-triazol-4-yl)methyl)-4,5,6,7-tetrahydropyrazolo[3,4-b]thiazolo[4,5-d]azepin-2-amine], the EC50 is below 100 nM.

For the compound `COCCN1CCc2sc(Nc3cccc(CO)n3)nc2-c2c[nH]nc21` [Compound 1-53, (6-(6-(2-Methoxyethyl)-4,5,6,8-tetrahydropyrazolo[3,4-b]thiazolo[4,5-d]azepin-2-ylamino)pyridin-2-yl)methanol], the EC50 was 1000 to 10000 nM.

Consider `COCCN1CCc2sc(Nc3ccnc(C)n3)nc2-c2c[nH]nc21` [Compound 1-54, 6-(2-Methoxyethyl)-N-(2-methylpyrimidin-4-yl)-4,5,6,8-tetrahydropyrazolo[3,4-b]thiazolo[4,5-d]azepin-2-amine], for which the 50% effective concentration (EC50) was 1000 to 10000 nM.

In the case of `COCCN1CCc2sc(Nc3ccncn3)nc2-c2c[nH]nc21` [Compound 1-55, 6-(2-Methoxyethyl)-N-(pyrimidin-4-yl)-4,5,6,8-tetrahydropyrazolo[3,4-b]thiazolo[4,5-d]azepin-2-amine], the EC50 is 1000 to 10000 nM.

Take `Fc1cnc(Nc2nc3c(s2)CCN(Cc2ccn[nH]2)c2n[nH]cc2-3)nc1` [Compound 1-56, 6-((1H-Pyrazol-5-yl)methyl)-N-(5-fluoropyrimidin-2-yl)-4,5,6,8-tetrahydropyrazolo[3,4-b]thiazolo[4,5-d]azepin-2-amine]: the EC50 is 100 to 1000 nM.

On to `Fc1cnc(Nc2nc3c(s2)CCN(Cc2[nH]ncc2Br)c2n[nH]cc2-3)nc1` [Compound 1-57, 6-((4-Bromo-1H-pyrazol-5-yl)methyl)-N-(5-fluoropyrimidin-2-yl)-4,5,6,8-tetrahydropyrazolo[3,4-b]thiazolo[4,5-d]azepin-2-amine], for which the EC50 lay in the range of 1000 to 10000 nM.

In the case of `Fc1cnc(Nc2nc3c(s2)CCN(Cc2ccc(Cl)cc2)c2[nH]ncc2-3)nc1` [Compound 1-58, 6-(4-Chlorobenzyl)-N-(5-fluoropyrimidin-2-yl)-4,5,6,7-tetrahydropyrazolo[3,4-b]thiazolo[4,5-d]azepin-2-amine], the EC50 fell in the range of 100 to 1000 nM.

Turning to `Cc1ccccc1CN1CCc2sc(Nc3ncc(F)cn3)nc2-c2cn[nH]c21` [Compound 1-59, N-(5-Fluoropyrimidin-2-yl)-6-(2-methylbenzyl)-4,5,6,7-tetrahydropyrazolo[3,4-b]thiazolo[4,5-d]azepin-2-amine], the EC50 was in the range of 1000 to 10000 nM.

Take `COc1cccc(CN2CCc3sc(Nc4ncc(F)cn4)nc3-c3cn[nH]c32)c1` [Compound 1-60, N-(5-Fluoropyrimidin-2-yl)-6-(3-methoxybenzyl)-4,5,6,7-tetrahydropyrazolo[3,4-b]thiazolo[4,5-d]azepin-2-amine]: the EC50 fell in the range of 100 to 1000 nM.

As for `Fc1ccc(CN2CCc3sc(Nc4ncc(F)cn4)nc3-c3cn[nH]c32)nc1` [Compound 1-61, 6-((5-Fluoropyridin-2-yl)methyl)-N-(5-fluoropyrimidin-2-yl)-4,5,6,7-tetrahydropyrazolo[3,4-b]thiazolo[4,5-d]azepin-2-amine], the EC50 was below 100 nM.

Consider `Fc1cnc(Nc2nc3c(s2)CCN(Cc2ccc(C(F)(F)F)cn2)c2[nH]ncc2-3)nc1` [Compound 1-62, N-(5-Fluoropyrimidin-2-yl)-6-((5-(trifluoromethyl)pyridin-2-yl)methyl)-4,5,6,7-tetrahydropyrazolo[3,4-b]thiazolo[4,5-d]azepin-2-amine], for which the EC50 is below 100 nM.

For the compound `Cc1ccnc(CN2CCc3nc(Nc4ncc(F)cn4)sc3-c3cn[nH]c32)c1` [Compound 1-63], the EC50 was below 100 nM.

Take `Fc1cnc(Nc2nc3c(s2)CCN(Cc2ncccc2Cl)c2[nH]ncc2-3)nc1` [Compound 1-64, 6-((3-Chloropyridin-2-yl)methyl)-N-(5-fluoropyrimidin-2-yl)-4,5,6,7-tetrahydropyrazolo[3,4-b]thiazolo[4,5-d]azepin-2-amine]: the EC50 lay within 100 to 1000 nM.

Take `Fc1cnc(Nc2nc3c(s2)CCN(CCc2ccccc2)c2[nH]ncc2-3)nc1` [Compound 1-65, N-(5-Fluoropyrimidin-2-yl)-6-phenethyl-4,5,6,7-tetrahydropyrazolo[3,4-b]thiazolo[4,5-d]azepin-2-amine]: the EC50 is 100 to 1000 nM.

`COCCN1CCc2sc(Nc3nc(C)ccc3F)nc2-c2cn[nH]c21` [Compound 1-66, N-(3-Fluoro-6-methylpyridin-2-yl)-6-(2-methoxyethyl)-4,5,6,7-tetrahydropyrazolo[3,4-b]thiazolo[4,5-d]azepin-2-amine]: the EC50 lay within 100 to 1000 nM.

Consider `Fc1cnc(Nc2nc3c(s2)CCN(Cc2cccc(Cl)c2)c2[nH]ncc2-3)nc1` [Compound 1-67, 6-(3-Chlorobenzyl)-N-(5-fluoropyrimidin-2-yl)-4,5,6,7-tetrahydropyrazolo[3,4-b]thiazolo[4,5-d]azepin-2-amine], for which the EC50 lay in the range of 100 to 1000 nM.
